Assay results from patent publication US20250282770A1, “BIOLUMINESCENT PROBES TO TRACK STEM CELLS IN VIVO” (THE BOARD OF TRUSTEES OF THE UNIVERSITY OF ILLINOIS, priority 2024, published 2025).

Assays:
[1] = tested on: intracellular levels of NO; assay: Intracellular NO levels in 4T1-Luc cells with BL660NO probe; type: cell-based, murine; conditions: 30 minutes
Method: FIG. 14A-D. a) 4T1-Luc cells administered BL660NO (NO-responsive bioluminescent probe; 39 μM) after incubation with DEA-NONOate (50 μM) for 30 minutes. b) Quantified data from a. c) 4T1-Luc cells administered BL660NO (20 μM) after incubation with L-NMMA (1 mM) for 30 minutes. d) Quantified data from c. Statistical analysis was performed using two-tailed Student's t-test with Welch's correction (α=0.05), *ρ<0.05.

ALDH1A1 [2] = assay: Immunohistochemical analysis of excised 4T1-Luc tumors; type: in vivo, BALB/c mice; conditions: L-NMMA 50 mg/kg versus vehicle; high-fat diet; opposite to reduced iNOS
Method: (§1) Finally, to examine how NO influences ALDH1A1 activity in vivo we placed BALB/c mice (female, 5-7 weeks old) on a high-fat diet for 40 weeks to induce an inflammatory response through elevated NO production. This period consists of a ˜20-week priming period prior to inoculation of the animals with 4T1-Luc cells at the mammary fat pad. At this point, the mice were randomized into two groups. The treatment group was administered L-NMMA (50 mg/kg), whereas the control group received water via oral gavage for 20 days. The day after the final treatment, mice from both conditions were treated systemically with AlDeLuc, and the bioluminescence was monitored (FIG. 5e). […] At the completion of the diet study, animals were sacrificed, and their tumors were excised for further immunohistochemical analysis.

[3] = tested on: ALDH1A1 activity in 4T1 cells; assay: Influence of L-NMMA on ALDH1A1 activity in 4T1 cells using AlDeLuc; type: cell-based, murine; conditions: L-NMMA 1 mM; AlDeLuc 50 μM
Method: Influence of L-NMMA on ALDH1A1 activity in 4T1 Cells Using AlDeLuc. 4T1 cells were cultured in T75 culture flasks. After two days, cells had become ˜90% confluent. The media was aspirated and 9 mL of fresh media was added. The flasks were then treated with L-NMMA (1 mM, cell culture water) or vehicle (cell culture water). After incubation for 60 minutes, the solutions were aspirated, washed with PBS, and resuspended in fresh RPMI 1640 media (9 mL). AlDeLuc was added to each flask (50 M, 5% v/v DMSO:PBS) for a final concentration of 0.5% DMSO per flask. After 60 minutes this solution was aspirated, washed with fresh PBS, and detached from the culture flasks. The cells were then transferred to a 15 mL centrifuge tube and pelleted at 1000 rpm for 5 minutes at room temp. The cells were resuspended in PBS along with 10% protease inhibitor solution (1 protease inhibitor mini tablet per 10 mL of PBS, Pierce, Thermo Fisher Scientific) and sonicated on ice for 2.5 minutes (pulse 01, 01, 40%). The cell debris was removed via centrifugation and the supernatant was plated (95 L/well) into a 96-well plate (n=4 for each condition). Each well was treated with luciferase (5 μL, 1 mg/mL) and immediately imaged using the IVIS imaging system in open mode. ROIs were drawn around each well and the signal intensity was quantified using the Living Image Analysis software.

iNOS = assay: Immunohistochemical analysis of excised 4T1-Luc tumors; type: in vivo, BALB/c mice; conditions: L-NMMA 50 mg/kg versus vehicle; high-fat diet
Source text: as §1, with “Diet-Induced Inflammation Modulates ALDH1A1 Activity in a Murine Model of Breast Cancer. Finally,” for “Finally,”, “analysis. Specifically, we determined that iNOS expression in tumors treated with L-NMMA was reduced. […] That is, reducing the levels of NO has the effect of increasing ALDH1A1 activity (as determined with AlDeLuc), as well as overall protein expression levels (FIG. 5h).” for “analysis.”

ALDH1A1 activity = assay: High-fat diet inflammatory model, orthotopic 4T1-Luc tumors, AlDeLuc imaging after L-NMMA; type: in vivo, BALB/c mice; conditions: L-NMMA 50 mg/kg oral gavage 20 days, AlDeLuc 0.55 mg/kg
Method: as §1
Generation of an Orthotopic 4T1-Luc Breast Cancer Model for Diet Studies. Female BALB/c mice (˜6 weeks old) were inoculated with 4T1-Luc cells (50 μL of 1×10^5 cells in 1:1 v/v serum-free RPMI 1640 media and Matrigel) via subcutaneous injections into the mammary fat pad. Tumor volumes were measured using the caliper method every three days. Body weight was measured daily over the course of the experiment.

[4] = tested on: ALDH1A1 activity in 4T1 cells; assay: Influence of interferon-gamma on ALDH1A1 activity in 4T1 cells using AlDeLuc; type: cell-based, murine; conditions: INF-γ 26.8 ng/mL, 12 hours; AlDeLuc 50 μM
Method: Influence of Interferon-gamma (INF-γ) on ALDH1A1 activity in 4T1 Cells Using AlDeLuc. 4T1 cells were cultured in T75 culture flasks. After two days, cells had become ˜90% confluent. An aliquot of RPMI 1640 was removed (26.8 μL) and the flasks were then treated with INF-γ (26.8 μL of […] stock in PBS, 26.8 ng/mL final conc.) or vehicle (26.8 μL PBS). After 12 hours, the solutions were aspirated, washed with PBS, and resuspended in fresh RPMI 1640 media (9 mL). AlDeLuc was added to each flask ([…], 5% v/v DMSO:PBS) for a final concentration of 0.5% DMSO per flask. After 60 minutes this solution was aspirated, washed with fresh PBS, and detached from the culture flasks. The cells were then transferred to a 15 mL centrifuge tube and pelleted at 1000 rpm for 5 minutes at room temp. The cells were resuspended in PBS along with 10% protease inhibitor solution (1 protease inhibitor mini tablet per 10 mL of PBS, Pierce, Thermo Fisher Scientific) and sonicated on ice for 2.5 minutes (pulse 01, 01, 40%). The cell debris was removed via centrifugation and the supernatant was plated (95 μL/well) into a 96-well plate (n=4 for each condition). Each well was treated with luciferase (5 μL, 1 mg/mL) and immediately imaged using the IVIS imaging system in open mode. ROIs were drawn around each well and the signal intensity was quantified using the Living Image Analysis software.

ALDH1A1 [5] = molecular target: T1, ALDH1A1 (Mus musculus, UniProt P24549); assay: Validation of ALDH-mediated activation of AlDeLuc in heterotopic breast cancer model via DEAB inhibition; type: in vivo, BALB/c mice; parameters: from tissue; host or cells: 4T1-Luc tumours in BALB/c mice
T1 sequence (P24549 1-501): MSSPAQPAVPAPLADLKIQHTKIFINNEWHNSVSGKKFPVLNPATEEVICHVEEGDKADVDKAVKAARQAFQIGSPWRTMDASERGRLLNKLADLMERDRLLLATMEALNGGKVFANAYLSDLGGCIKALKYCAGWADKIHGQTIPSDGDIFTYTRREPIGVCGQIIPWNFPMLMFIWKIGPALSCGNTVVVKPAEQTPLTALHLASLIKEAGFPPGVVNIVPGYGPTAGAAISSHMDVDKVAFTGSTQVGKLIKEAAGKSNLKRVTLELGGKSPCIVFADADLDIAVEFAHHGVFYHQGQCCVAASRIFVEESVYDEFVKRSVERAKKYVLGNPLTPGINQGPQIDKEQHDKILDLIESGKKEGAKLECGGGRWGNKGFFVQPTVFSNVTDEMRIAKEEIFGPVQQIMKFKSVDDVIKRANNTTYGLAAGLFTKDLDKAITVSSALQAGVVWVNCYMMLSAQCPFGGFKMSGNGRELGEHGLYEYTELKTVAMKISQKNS
Method: Validation of ALDH-mediated Activation of AlDeLuc in a Heterotopic Breast Cancer Model via DEAB Inhibition. BALB/c mice bearing 4T1-Luc tumors were anesthetized using isoflurane (1-3% for maintenance; up to 5% for induction) in oxygen from a precision vaporizer. After testing to ensure animals are fully under anesthesia, each mouse was administered AlDeLuc via retro-orbital injection (0.55 mg/kg, 1:19 v/v DMSO:PBS). Images were captured using the IVIS imaging system 40 minutes after injection. Bioluminescence light was captured in open mode (no filters were applied). ROIs were drawn around each tumor and summed for each animal. The signal intensity was quantified using the Living Image Analysis Software. After two days, the same animals were anesthetized and co-administered a solution of AlDeLuc and DEAB (0.55 mg/kg and 93 mg/kg respectively, 1:19 v/v DMSO:PBS). After the allotted 40 minutes, the images were captured using the IVIS imaging system. Bioluminescence was collected in open mode (no filters were applied). ROIS were drawn around each tumor and summed for each animal. The signal intensity was quantified using the Living Image Analysis Software.

ALDH1A1 [6] = molecular target: T1, ALDH1A1; assay: DEAB inhibition of AlDeLuc activation in 4T1 cells; type: cell-based, murine; parameters: host or cells: 4T1 murine mammary carcinoma cells; conditions: DEAB 500 μM; AlDeLuc 100 μM; 4T1 lysates
Method: Validation of ALDH-Mediated Activation of AlDeLuc in Murine Breast Cancer Cells. 4T1 cells were cultured in T75 culture flasks. After two days, cells had become ˜90% confluent. An aliquot of RPMI 1640 media (1 mL) was removed from each flask and replaced with either DEAB ([…], 0.5% DMSO) or vehicle (0.5% DMSO). After incubation for one hour, the solutions were aspirated, washed with PBS, and resuspended in fresh RPMI 1640 media (9 mL). Each flask was then incubated with the AlDeLuc (100 μM) and DEAB (500 μM) or AlDeLuc (100 μM) and vehicle (DMSO), each with a final concentration of 1% DMSO. After 60 minutes, this solution was aspirated, washed with fresh PBS, and detached from the culture flasks. The cells were then transferred to a 15 mL centrifuge tube and pelleted at 1000 rpm for 5 minutes at room temp. The cells were resuspended in PBS along with 10% protease inhibitor solution (1 protease inhibitor mini tablet per 10 mL of PBS, Pierce, Thermo Fisher Scientific) and sonicated on ice for 2.5 minutes (pulse 01, 01, 40%). The cell debris was removed via centrifugation and the supernatant was plated ([…]) into a 96-well plate (n=4 for each condition). […] ROIs were drawn around each well and the signal intensity was quantified using the Living Image Analysis software.

[7] = tested on: ALDH1A1 activity in 4T1 cells; assay: Effect of nitric oxide (DETA NONOate) on ALDH1A1 activity in 4T1 cells using AlDeLuc; type: cell-based, murine; conditions: DETA NONOate 50 μM, 2-day treatment; AlDeLuc 2 μM
Method: Exploring the Effect of Nitric Oxide on ALDH1A1 activity in 4T1 Cells Using AlDeLuc. 4T1 cells were cultured in T75 flasks, and once they reached ˜30% confluency (1 day), the media was removed and replaced with fresh RPMI 1640 media supplemented with either DETA NONOate (50 μM) or vehicle (media). After 24 hours, the media was aspirated, and the cells were treated once more with RPMI 1640 media containing either DETA NONOate (50 μM) or vehicle (media). After […], the suspension was removed and cells were treated with AlDeLuc (2 μM, final concentration of 0.01% DMSO). After 60 minutes the AlDeLuc solution was aspirated, washed with fresh PBS, and detached from the culture flasks. The cells were then transferred to a 15 mL centrifuge tube and pelleted at 1000 rpm for 5 minutes at room temp. The cells were resuspended in PBS along with 10% protease inhibitor solution (1 protease inhibitor mini tablet per 10 mL of PBS, Pierce, Thermo Fisher Scientific) and sonicated on ice for 2.5 minutes (pulse 01, 01, 40%). The cell debris was removed via centrifugation and the supernatant was plated (95 μL/well) into a 96-well plate (n=4 for each condition). Each well was treated with luciferase (5 μL, 1 mg/mL) and immediately imaged using the IVIS imaging system in open mode. ROIs were drawn around each well and the signal intensity was quantified using the Living Image Analysis software.

How did the “intracellular levels of NO” value ([1]; DEA NONOate 50 μM) turn out when CCN(CC)/[N+]([O-])=N/O.CCNCC [DEA NONOate] was run?
Its value is “increasing”.

For CNC(=N)NCCC[C@H](N)C(=O)O [L-NMMA], which “ALDH1A1 expression in tumors” value (ALDH1A1 [2]) is on record?
The value was “opposite trend”.

What about the “intracellular levels of NO” value ([1]; L-NMMA 1 mM) of the same molecule?
Its value is “decreasing”.

And the “bioluminescence higher compared to vehicle-treated cells” value [3]?
Its value is 2.4 fold.

What about the “iNOS expression in tumors” value (iNOS) of the same molecule?
Its value is “reduced”.

What about the “enhancement in total luminescent counts compared to control group” value (ALDH1A1 activity) of the same molecule?
The value was 5.9 fold.

What about the total luminescent counts (ALDH1A1 activity; 40 min) of the same molecule?
The total luminescent counts was 9.9±2.7×10^4.

How did the “bioluminescence signal lower relative to vehicle-treated control cells” value [4] turn out when “IFN-γ: interferon gamma, shown to stimulate NO production via inducible nitric oxide synthase” was run?
Its value is 3.2 fold.

What does the source list for CCN(CC)c1ccc(C=O)cc1 [DEAB, diethylaminobenzaldehyde]?
difference in total luminescent counts, AlDeLuc alone versus DEAB co-treated (ALDH1A1 [5]; DEAB 93 mg/kg, AlDeLuc 0.55 mg/kg): 2.8 fold; total luminescent counts (ALDH1A1 [5]; co-treated DEAB 93 mg/kg and AlDeLuc 0.55 mg/kg, 40 min): 0.78±0.28×10^4; diminished bioluminescent signal relative to uninhibited cells (ALDH1A1 [6]): approximately 5 fold

Which bioluminescence decreased [7] does the source give for NCCN(CCN)/[N+]([O-])=N/O [DETA NONOate] here?
Its bioluminescence decreased is 1.3 fold.
